Data reported in ChEMBL document CHEMBL1687831 (Antimicrob Agents Chemother, 2011).

Experiments:
[1] = Inhibition of beta-lactamase SHV1
[2] = Inhibition of acinetobacter-derived cephalosporinase
[3] = Inhibition of beta-lactamase TEM1 expressed in Escherichia coli JM109
[4] = Inhibition of beta-lactamase AmpC expressed in Escherichia coli
[5] = Inhibition of beta-lactamase CTX-M-9 expressed in Escherichia coli BL21(DE3)

| SMILES | Ki [1] [µM] | Ki [2] [µM] | Ki [3] [µM] | Ki [4] [µM] | Ki [5] [µM] |
| --- | --- | --- | --- | --- | --- |
| CCN1CCN(C(=O)N[C@@H](C(=O)NCB(O)O)c2ccc(O)cc2)C(=O)C1=O [CEFOPERAZONE BATSI] | 17 | 0.6 |  |  |  |
| CC(C)(O/N=C(\C(=O)NCB(O)O)c1csc(N)n1)C(=O)O [CEFTAZIDIME BATSI] |  | 0.31 | 0.39 | 0.02 | 0.015 |
| CCN1CCN(C(=O)N[C@H](Cc2ccc(O)cc2)C(=O)NCB2OC(C)(C)C(C)(C)O2)C(=O)C1=O | 9.8 |  |  |  |  |
